# Measured values: patent US20230312652A1, “NOVEL PEPTIDES AND USES THEREOF” (Aarhus Universitet, priority 2020, published 2023)
# Read-outs that look alike come from different tables or passages of the source. Where a SMILES comes first, the peptide text is derived from it.
# Legend:
# [1] = tested on: CYP450 enzymes; assay: Cytochrome P450 inhibition in liver microsomes; type: in vitro ADME; conditions: dose-range of P1, with or without NADPH
# Description: Liver microsomes were prepared with cocktails of known substrates of the respective CYP450 enzymes to evaluate the effects of P1 on enzyme inhibition. For each CYP-enzyme a previously described inhibitor was used as a positive control. Sample solutions were pre-incubated with P1 (10 mM) or inhibitor at 37° C. for ten minutes before addition of NADPH. Enzyme activity was measured in samples containing a dose-range of P1 with or without NAPDH (substrate used by the liver enzymes in detoxification steps). Reactions were incubated for 10 minutes before the reactions were stopped and analysed by LCMS to detect CYP metabolites.
# [2] = tested on: GRN+/- hippocampal neurons; assay: Lysosomal acidification in GRN+/- hippocampal neurons, LysoSensor DND-189; type: cell-based, mouse; conditions: 1 uM, 4 hours
# Description: Primary hippocampal neurons from GRN+/− mice were seeded in an 8-well ibidi chamber pre-coated with Poly-I and laminin. 75,000 neurons were seeded pr. well. After 5 days in vitro the neurons were stimulated for 4, 8 or 24 hours with peptide P1 at 1 uM in neurobasal A with B27. After stimulation, the medium was changed to pre-warmed (37° C.) neurobasal A containing 1 uM of LysoSensor probe DND-189 (an acidotropic probes that accumulates in acidic organelles as the result of protonation) and incubated for 30 min. at 37° C. in a 5% C02 atmosphere. Hereafter, the media was changed to pre-warmed FluoroBrite Medium and the neurons were imaged in Olympus microscopy system. Pictures were taken of the lysosomes and processed using the ScanR imaging software to give fluorescence (intensity) of each lysosomal vesicle. The summed total intensity of all lysosomes was calculated and divided by the total number of neurons imaged yielding the total intensity of lysosomes per neuron. Student's t-test was used for statistical analysis.
# [3] = Plasma binding, human plasma, ultracentrifugation; type: in vitro ADME
# Description: For plasma binding, 2 μM P1 or Warfarin (positive control) were added to mouse or human plasma. After 30 minutes incubation at 37° C., samples where ultracentrifuged for 4 hours to generate protein-free samples for LCMS analysis. In parallel, plasma was incubated for 4.5 h to determine total levels after incubation. Plasma binding was calculated as % Bound=100*(1−F/T4.5), where F is concentration of free ligand and T4.5 is the concentration of total ligand after incubation.
# [4] = tested on: AMPK (T172) and Raptor (S792); assay: Phosphorylation of AMPK (T172) and Raptor (S792) in cortical neurons, western blotting; type: cell-based, mouse; conditions: 1 uM, 20 minutes
# Description: To assess the ability of peptide P1 to activate AMPK and subsequently inactivate the mTOR complex, mouse cortical neurons were isolated from p0 wild-type mice and seeded in a density of 250,000 per well in a 12-well tray. After 7 days in vitro the neurons were stimulated with P1 in neurobasal A media and incubated at 37° C. and 5% CO2 for 20 minutes. Hereafter, the neurons were lysed in lysis buffer containing DTT and cOmplete cocktail protease inhibitor. The phosphorylation of AMPK (T172) and Raptor (S792) was validated by western blotting normalized to beta-actin.
# [5] = Plasma, whole brain and cerebrospinal fluid concentrations after SC or IV injection, LC MS/MS; type: in vivo, mouse; conditions: for half-life: mouse, in vivo, read-out: T½ in brain (converted)
# Description: 13 mg/kg and 52 mg/kg of P1 were either subcutaneously or intravenously injected in wild-type mice in either 4.38 mM L-His, 140 mM NaCl, 0.2% Tween-20 and 1500 IU hyaluronidase (for SC, pH 6.15) or saline (IV). Both plasma, whole brain and cerebrospinal fluid concentrations were validated at different timepoints of 0.25-4 hours by LC MS/MS.
# We further explored whether delivery to the CSF and brain would be dose-dependent by the SC route. P1 (SEQ ID NO: 1) were subcutaneously injected in wild-type mice in different concentrations of 0-52 mg/kg in 4.38 mM L-His, 140 mM NaCl, 0.2% Tween-20 and 1500 IU hyaluronidase (pH 6.15). Levels of P1 were validated in both plasma, whole brain and cerebrospinal fluid after 15 min injection by LC MS/MS.
# 13 mg/kg of P1 (SEQ ID NO: 1) were subcutaneously injected in wild-type mice in different formulations in either PBS buffer, in buffer containing 4.38 mM L-His, 140 mM NaCl, 0.2% Tween-20 and 1500 IU hyaluronidase (pH 6.15) or in buffer with 4.38 mM L-His, 140 mM NaCl, 0.2% Tween-20. Levels of P1 were validated in both plasma and whole brain after 15 and 30 min. of injection by LC MS/MS.
# [6] = tested on: R6/2 mice (mouse model of Huntington's); assay: Stereological analysis of regional brain volume in R6/2 mice; type: in vivo; conditions: 13 mg/kg SC daily, 8 to 12 weeks of age
# Description: The brain was cut using a fine razor blade and one hemisphere (right) was directly put into ice-cold 4% PFA in PBS for 24 hours, and then transferred to a 30% sucrose PBS solution for 48 hours and stored at 4° C.
# The PFA fixed hemispheres were imbedded in TissueTec and sliced on a cryostat at 50 μm thickness. For stereology, every 5th section was sampled using the principle of systematic random sampling, giving a section sampling fraction (SSF)=1/5.
# The sections were mounted on chrome-gelatin-coated slides and Nissl stained with a 0.25% thionine solution (thionin, Sigma T3387). Image acquisition and analysis was performed using the newCAST system (Visiopharm, Horsholm, Denmark). This system consists of an Olympus light microscope (Olympus BX50, Olympus, Denmark) modified for stereology with a digital camera (PixeLINK PLA686C, Canada) and a motorized microscope stage (Prior H138 with controller H29, Cambridge, UK). The newCAST software was interfaced to the digital camera superimposing the counting frames on the live images.
# The volume estimation was carried out using the Cavalieri principle for quantifying the total volume of the hippocampus, striatum and mid-part of the cortex (6 slides used for this) using a 4× lens.
# [7] = tested on: ST HDH cells (Q111, Q7); assay: Active mitochondrial mass in ST HDH cells, MitoTracker; type: cell-based, mouse
# Description: The impact on mitochondrial function was assessed in ST HDH cells (mouse striatal cell line) expressing either HTT with a 111 polyglutamine stretch (Q111) or a 7 polyglutamine stretch (Q7), thereby serving as a model of HD. The cells were stimulated with P1 at timepoints between 0-24 hours and mitochondrial mass was subsequently measured using MitoTracker—a probe which binds to active mitochondria. Signal was measured in plate-reader at ex/em […].
# [8] = SC 0-52 mg/kg, 15 min after injection
compound,measurement,setting,value
"CSCC[C@@H]1NC(=O)[C@H](C(C)C)NC(=O)[C@H](CC(=O)O)NC(=O)[C@H](CCC(=O)O)NC(=O)[C@H](CCC(=O)O)NC(=O)[C@H](Cc2c[nH]cn2)NC(=O)[C@H](CCC(=O)O)NC(=O)[C@H](C(C)C)NC(=O)[C@@H]2CCCN2C(=O)[C@H](CCC(=O)O)NC(=O)[C@H]([C@@H](C)O)NC1=O [Peptide P1, [MTEPVEHEEDV]] (cyclo(MTEPVEHEEDV))",CYP-inhibition,[1],no CYP-inhibition effects
same,lysosomal intensity (lysosomal acidification),[2],lysosomal intensity was increased
same,plasma binding,[3]; 2 μM,20%
same,"fraction unbound at 30 min, 2 μM",[3]; read-out: compound unbound in plasma,> 0.75
same,AMPK phosphorylation on T172,[4],activates AMPK
same,Raptor phosphorylation on S792,[4],inactivates Raptor
same,difference between L-His buffer with or without hyaluronidase,"[5]; 13 mg/kg SC, plasma and whole brain, 15 and 30 min",no significant difference
same,levels in plasma and whole brain in different formulations,"[5]; 13 mg/kg SC, PBS, L-His buffer with or without hyaluronidase, 15 and 30 min",measurable in the plasma and brain in all formulations
same,maximal brain-plasma ratio,[5]; IV delivery,0.034
same,levels in brain and CSF,[5]; [8],measurable in the brain and CSF at all concentrations
same,"levels in plasma, brain and CSF versus dose",[5]; [8],increased with the dosage
same,maximal brain-plasma ratio,[5]; SC delivery,0.032
same,half-life,"[5]; IV delivery, saline",13.9 min
same,half-life,"[5]; SC delivery, L-His buffer with hyaluronidase",19 min
same,cortical volume,[6],tendency of increasing
same,hippocampal volume,[6],tendency of increasing
same,mitochondrial mass,[7]; Q7 cells,mitochondrial mass is increased
same,mitochondrial mass,"[7]; Q111 cells, 24 hours",increased above the baseline from the healthy cell line
